Measurements: patent US9079913B2, “Spiro-oxindole MDM2 antagonists” (The Regents of the University of Michigan, priority 2009, dated 2015)
Like-named read-outs stand apart in the source and are kept apart here. Values belong to the compound of their own block, whether it stands above or below them.

Assays:
[1] = tested on: Isogenic HCT-116 colon cancer cell lines; assay: cells; type: cell-based;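 further: cells grown in 96-well plates in McCoy's 5A medium with 10% FBS, exposed to compound for 4 days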
Experimental: Cells were seeded in 96-well flat bottom cell culture plates at a density of 2−3×10^3 cells/well with compounds and incubated for 4 days.

[2] = tested on: cancer cell lines with wild-type p53 / mutated or deleted p53 (ATCC); assay: Cell growth assay (WST-8), other cancer cell lines; type: cell-based
[3] = In vitro microsomal stability, rat; type: in vitro ADME
[4] = Homo sapiens, HCT-116, read-out: HCT-116 (p53 wild-type) IC50, Table 19A, HCT-116 p53 wild-type, cell growth
[5] = Homo sapiens, LNCaP, read-out: LNCAP (p53 wild-type) IC50
[6] = Homo sapiens, PC-3, read-out: PC-3 (deleted p53) IC50
[7] = Homo sapiens, SJSA-1, read-out: SJSA-1 (p53 wild-type) IC50
[8] = Homo sapiens, HCT-116, read-out: HCT-116 (p53-/-) IC50, Table 19A, HCT-116 p53-/-, cell growth
[9] = Homo sapiens, LNCaP, Table 19A, LNCAP cells, p53 wild-type, cell growth, read-out: LNCAP (p53 wild-type) IC50
[10] = Homo sapiens, PC-3, Table 19A, PC-3 cells, deleted p53, cell growth, read-out: PC-3 (deleted p53) IC50
[11] = Homo sapiens, SJSA-1, Table 19A, SJSA-1 cells, p53 wild-type, cell growth, read-out: SJSA-1 (p53 wild-type) IC50
[12] = Homo sapiens, HCT-116, read-out: HCT-116 (p53 wild-type) IC50
[13] = read-out: SJSA-1 (p53 wild-type) IC50
[14] = Homo sapiens, HCT-116, read-out: Inhibition of cell growth IC50, HCT116 p53 WT, Table 19B, HCT116 p53 WT
[15] = Homo sapiens, LNCaP, Table 19B, LNCaP cells, read-out: Inhibition of cell growth IC50, LNCaP

SMILES: CC(C)(C)C[C@@H]1N[C@@H](C(=O)NC2CCC(O)CC2)[C@H](c2cccc(Cl)c2F)[C@]12C(=O)Nc1cc(Cl)ccc12 (stereo partly shown) [MI-77301]
- IC50 [1, 4]: 0.1 µM
- IC50 [2, 5]: 0.1 µM
- IC50 [2, 6]: 13 µM
- IC50 [2, 7]: 0.8 µM

- % of compound remaining when incubated in rat liver microsomes ([3]; Table 16, 0 min): 100%
- % of compound remaining when incubated in rat liver microsomes ([3]; Table 16, 4 min): 95.1%
- % of compound remaining when incubated in rat liver microsomes ([3]; Table 16, 6 min): 88.1%
- % of compound remaining when incubated in rat liver microsomes ([3]; Table 16, 10 min): 84.7%
- % of compound remaining when incubated in rat liver microsomes ([3]; Table 16, 15 min): 82.1%
- % of compound remaining when incubated in rat liver microsomes ([3]; Table 16, 30 min): 79%
SMILES: CC(C)(C)CC1NC(C(=O)NCCN2CCCC2)C(c2cccc(Cl)c2F)C12C(=O)Nc1cc(Cl)ccc12 (stereo not shown) [MI-120]

SMILES: CC(C)(C)C[C@H]1N[C@@H](C(=O)NCCCN2CCN(C3CC3)CC2)[C@H](c2cccc(Cl)c2F)[C@@]12C(=O)Nc1cc(Cl)ccc12 [MI-519-48]
- % of compound remaining when incubated in rat liver microsomes ([3]; Table 17, 0 min): 100%
- % of compound remaining when incubated in rat liver microsomes ([3]; Table 17, 4 min): 79.8%
- % of compound remaining when incubated in rat liver microsomes ([3]; Table 17, 6 min): 64.8%
- % of compound remaining when incubated in rat liver microsomes ([3]; Table 17, 10 min): 48.5%
- % of compound remaining when incubated in rat liver microsomes ([3]; Table 17, 15 min): 45.2%
- % of compound remaining when incubated in rat liver microsomes ([3]; Table 17, 30 min): 43.7%

- % of compound remaining when incubated in rat liver microsomes ([3]; Table 16, 0 min): 100%
- % of compound remaining when incubated in rat liver microsomes ([3]; Table 16, 4 min): 76%
- % of compound remaining when incubated in rat liver microsomes ([3]; Table 16, 6 min): 57.9%
- % of compound remaining when incubated in rat liver microsomes ([3]; Table 16, 10 min): 35.4%
- % of compound remaining when incubated in rat liver microsomes ([3]; Table 16, 15 min): 27.7%
- % of compound remaining when incubated in rat liver microsomes ([3]; Table 16, 30 min): 21%
SMILES: CC(C)(C)CC1NC(C(=O)NCCN2CCOCC2)C(c2cccc(Cl)c2F)C12C(=O)Nc1cc(Cl)ccc12 (stereo not shown) [MI-63]

SMILES: CC(C)(C)C[C@H]1N[C@@H](C(=O)NC2CC(=O)C2)[C@H](c2cccc(Cl)c2F)[C@@]12C(=O)Nc1cc(Cl)ccc12 [MI-519-70]
- IC50 [1, 8]: > 10 µM
- IC50 [1, 4]: < 5 µM
- IC50 [2, 9]: < 5 µM
- IC50 [2, 10]: > 10 µM
- IC50 [2, 11]: < 5 µM

SMILES: CNCC(=O)N1CCN(C(=O)[C@@H]2N[C@H](CC(C)(C)C)[C@]3(C(=O)Nc4cc(Cl)c(F)cc43)[C@H]2c2cccc(Cl)c2)CC1 [MI-747]
- IC50 [1, 8]: 3.9 µM
- IC50 [1, 4]: 1.3 µM
- IC50 [2, 9]: 1.3 µM
- IC50 [2, 10]: 3.7 µM

SMILES: CC(C)(C)C[C@@H]1N[C@@H](C(=O)NC2CCC(O)CC2)[C@H](c2cccc(F)c2F)[C@]12C(=O)Nc1cc(Cl)ccc12 (stereo partly shown) [MI-710201]
- IC50 [1, 12]: 0.3 µM

SMILES: CC(C)(C)C[C@H]1N[C@@H](C(=O)N[C@H]2C[C@H](NS(C)(=O)=O)C2)[C@H](c2cccc(Cl)c2F)[C@@]12C(=O)Nc1cc(Cl)ccc12 [MI-519-61]
- IC50 [1, 12]: < 3 µM
- IC50 [2, 5]: < 3 µM
- IC50 [2, 7]: < 3 µM

SMILES: CC(C)(C)C[C@H]1N[C@@H](C(=O)NC2CCC(O)CC2)[C@H](c2cccc(Cl)c2F)[C@@]12C(=O)Nc1cc(F)c(F)cc12 (stereo partly shown) [MI-7104]
- IC50 ([2]; read-out: LNCAP (p53 wild-type) IC50): < 3 µM
- IC50 ([2]; read-out: PC-3 (deleted p53) IC50): > 10 µM
- IC50 [2, 13]: < 3 µM

- % of compound remaining when incubated in rat liver microsomes ([3]; Table 16, 0 min): 100%
- % of compound remaining when incubated in rat liver microsomes ([3]; Table 16, 4 min): 77.2%
- % of compound remaining when incubated in rat liver microsomes ([3]; Table 16, 6 min): 60.1%
- % of compound remaining when incubated in rat liver microsomes ([3]; Table 16, 10 min): 48%
- % of compound remaining when incubated in rat liver microsomes ([3]; Table 16, 15 min): 42.3%
- % of compound remaining when incubated in rat liver microsomes ([3]; Table 16, 30 min): 34.1%
SMILES: CC(C)N1CCN(CCNC(=O)[C@@H]2N[C@H](CC(C)(C)C)[C@]3(C(=O)Nc4cc(Cl)ccc43)[C@H]2c2cccc(Cl)c2F)CC1 [MI-130]

- % of compound remaining when incubated in rat liver microsomes ([3]; Table 16, 0 min): 100%
- % of compound remaining when incubated in rat liver microsomes ([3]; Table 16, 4 min): 74.4%
- % of compound remaining when incubated in rat liver microsomes ([3]; Table 16, 6 min): 52.5%
- % of compound remaining when incubated in rat liver microsomes ([3]; Table 16, 10 min): 41.1%
- % of compound remaining when incubated in rat liver microsomes ([3]; Table 16, 15 min): 36.7%
- % of compound remaining when incubated in rat liver microsomes ([3]; Table 16, 30 min): 33.1%
SMILES: CCN1CCN(CCNC(=O)C2NC(CC(C)(C)C)C3(C(=O)Nc4cc(Cl)ccc43)C2c2cccc(Cl)c2F)CC1 (stereo not shown) [MI-129]

SMILES: CC(C)(C)C[C@H]1N[C@@H](C(=O)NC2CC(OC(=O)CN)C2)[C@H](c2cccc(Cl)c2F)[C@@]12C(=O)Nc1cc(Cl)ccc12 (stereo partly shown) [MI-519-69]
- IC50 [1, 8]: > 10 µM
- IC50 [1, 4]: < 5 µM
- IC50 [2, 9]: < 5 µM
- IC50 [2, 10]: > 10 µM
- IC50 [2, 11]: < 5 µM

SMILES: CC(C)(C)C[C@H]1N[C@@H](C(=O)N[C@H]2C[C@](C)(O)C2)[C@H](c2cccc(Cl)c2F)[C@@]12C(=O)Nc1cc(Cl)ccc12 [MI-519-65]
- cell growth inhibition (in words) [2]: effectively inhibit cancer cell growth
- IC50 [2, 5]: < 3 µM
- IC50 [2, 7]: < 3 µM

SMILES: CC(C)(C)C[C@H]1N[C@@H](C(=O)NCC[C@H]2CC[C@@H](O)C2)[C@H](c2cccc(Cl)c2F)[C@@]12C(=O)Nc1cc(Cl)ccc12 [MI-753]
- IC50 [1, 14]: 2.9 ± 0.1 µM
- IC50 ([1]; read-out: Inhibition of cell growth IC50, HCT116 p53 KO, Table 19B, HCT116 p53 KO): 21.8 ± 4.9 µM
- IC50 [2, 15]: 3.2 ± 0.3 µM
- IC50 ([2]; Table 19B, PC3 cells, read-out: Inhibition of cell growth IC50, PC3): 24.7 ± 2.7 µM

SMILES: CC(C)(C)C[C@H]1N[C@@H](C(=O)NCCCCN2CCCC2)[C@H](c2cccc(Cl)c2F)[C@@]12C(=O)Nc1cc(Cl)c(F)cc12 [MI-765]
- IC50 [1, 8]: 4.7 ± 2 µM
- IC50 [1, 4]: 1.1 ± 0.2 µM
- IC50 [2, 9]: 1.5 ± 0.9 µM
- IC50 [2, 10]: 2.6 ± 0.2 µM
- IC50 [2, 11]: 1.4 ± 0.1 µM

SMILES: CC(C)(C)C[C@H]1N[C@@H](C(=O)NC2CCN(CC(F)F)CC2)[C@H](c2cccc(Cl)c2F)[C@@]12C(=O)Nc1cc(Cl)ccc12 [MI-519-66]
- IC50 ([1]; Homo sapiens, HCT-116, read-out: HCT116p53KO IC50, Table 19D, HCT116 p53KO): 5.51 µM
- IC50 ([1]; Homo sapiens, HCT-116, read-out: HCT116p53WT IC50, Table 19D, HCT116 p53WT): < 2 µM
- IC50 ([2]; Homo sapiens, LNCaP, Table 19D, LNCaP cells, read-out: LNCaP IC50): < 3 µM
- IC50 ([2]; Homo sapiens, PC-3, Table 19D, PC3 cells, read-out: PC3 IC50): 6.89 µM
- IC50 ([2]; Homo sapiens, Table 19D, SJSA-1 cells, unit inferred, read-out: SJSA-1): < 3 µM

SMILES: CC(C)(C)C[C@H]1N[C@@H](C(=O)NCCCNS(C)(=O)=O)[C@H](c2cccc(Cl)c2F)[C@@]12C(=O)Nc1cc(Cl)c(F)cc12 [MI-768]
- IC50 [1, 8]: 9.8 ± 0.4 µM
- IC50 [1, 4]: 0.5 ± 0.2 µM
- IC50 [2, 9]: 0.7 ± 0.2 µM
- IC50 [2, 10]: 7.3 ± 0.8 µM
- IC50 [2, 11]: 0.8 ± 0.1 µM

SMILES: CC(C)(C)C[C@H]1N[C@@H](C(=O)NCC[C@H]2CC[C@H](N)C2)[C@H](c2cccc(Cl)c2F)[C@@]12C(=O)Nc1cc(Cl)c(F)cc12 [MI-767]
- IC50 [1, 8]: 2.4 ± 1 µM
- IC50 [1, 4]: 0.7 ± 0.2 µM
- IC50 [2, 9]: 0.9 ± 0.2 µM
- IC50 [2, 10]: 2.2 ± 0.1 µM
- IC50 [2, 11]: 0.9 ± 0.6 µM

SMILES: CC(C)(C)C[C@H]1N[C@@H](C(=O)NCC[C@H]2CC[C@H](NS(C)(=O)=O)C2)[C@H](c2cccc(Cl)c2F)[C@@]12C(=O)Nc1cc(Cl)c(F)cc12 [MI-766]
- IC50 [1, 8]: 6.9 ± 1.4 µM
- IC50 [1, 4]: 0.7 µM
- IC50 [2, 9]: 0.9 µM
- IC50 [2, 10]: 5.9 ± 2.2 µM
- IC50 [2, 11]: 1.7 ± 1.4 µM

SMILES: CC(C)(C)C[C@H]1N[C@@H](C(=O)NC2CCC(O)CC2)[C@H](c2cccc(Cl)c2F)[C@@]12C(=O)Nc1cc(F)c(F)cc12 (stereo partly shown) [MI-786]
- IC50 [2, 13]: 0.8 µM

SMILES: CC(C)(C)C[C@H]1N[C@@H](C(=O)N[C@H]2CC[C@H](O)C2)[C@H](c2cccc(Cl)c2F)[C@@]12C(=O)Nc1cc(Cl)ccc12 [MI-519-51-epi]
- IC50 [2, 5]: < 2 µM
- IC50 [2, 6]: > 10 µM

SMILES: CC(C)(C)C[C@@H]1N[C@@H](C(=O)N[C@H]2C[C@@](C)(O)C2)[C@H](c2cccc(Cl)c2F)[C@]12C(=O)Nc1cc(Cl)ccc12 [MI-519-6401]
- IC50 [1, 12]: 0.1 µM
- IC50 [2, 5]: 0.3 µM
- IC50 [2, 6]: 10.5 µM
- IC50 [2, 7]: 0.4 µM

SMILES: CC(C)(C)C[C@H]1N[C@@H](C(=O)NCCNS(C)(=O)=O)[C@H](c2cccc(Cl)c2F)[C@@]12C(=O)Nc1cc(Cl)c(F)cc12 [MI-769]
- IC50 [1, 8]: 10.2 µM
- IC50 [1, 4]: 1.6 µM
- IC50 [2, 9]: 1.5 µM
- IC50 [2, 10]: 13 µM
- IC50 [2, 11]: 0.6 µM

SMILES: CN1[C@@H](C(=O)NCCN2CCOCC2)[C@H](c2cccc(Cl)c2F)[C@@]2(C(=O)Nc3cc(F)c(F)cc32)[C@H]1CC(C)(C)C [MI-722]
- IC50 ([1]; Homo sapiens, HCT-116, read-out: Inhibition of cell growth IC50, HCT116 p53 KO, Table 19B, HCT116 p53 KO): > 100 µM
- IC50 [1, 14]: > 100 µM
- IC50 [2, 15]: > 100 µM
- IC50 ([2]; Homo sapiens, PC-3, Table 19B, PC3 cells, read-out: Inhibition of cell growth IC50, PC3): > 100 µM
